The values that follow come from article PMC11111404, “Discovery of potent small-molecule inhibitors of lipoprotein(a) formation” (Nature, 2024).

In test [1] the target is T1, apo(a) KIV5–8 (Homo sapiens, UniProt P08519).
T1 construct: made in house
T1 sequence (P08519 1043-1470 limits assumed): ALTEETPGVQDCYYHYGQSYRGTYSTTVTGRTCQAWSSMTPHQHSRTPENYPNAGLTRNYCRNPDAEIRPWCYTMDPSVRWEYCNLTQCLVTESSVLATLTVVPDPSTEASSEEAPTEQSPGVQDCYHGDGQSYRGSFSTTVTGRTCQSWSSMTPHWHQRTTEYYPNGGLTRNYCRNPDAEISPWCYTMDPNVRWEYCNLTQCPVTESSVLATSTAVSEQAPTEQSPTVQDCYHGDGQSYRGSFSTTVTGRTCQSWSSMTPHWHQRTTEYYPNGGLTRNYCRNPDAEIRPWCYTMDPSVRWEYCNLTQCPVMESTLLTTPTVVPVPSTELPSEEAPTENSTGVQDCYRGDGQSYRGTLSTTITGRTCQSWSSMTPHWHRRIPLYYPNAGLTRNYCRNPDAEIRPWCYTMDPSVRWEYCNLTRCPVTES
As to the kind of experiment: ITC binding to apo(a) KIV5–8. Here is the method: (§1) The nucleotide sequence encoding the human LPA gene (NP_005568.2) was inserted into a mammalian expression vector containing a cytomegalovirus promoter. Protein expression was performed by transient transfection of human embryonic kidney 293 (HEK293) cells cultured in serum-free medium. The culture medium was collected five days after transfection and human apo(a) protein was purified using L-lysine affinity chromatography. Nucleotide sequences encoding various KIV domains of human apo(a) and human and rat plasminogen were inserted into a pET21a Escherichia coli expression vector. Bacterial BL21(DE3) was used as the expression host, and the induction of protein expression was performed in 2× TY medium with 1 mM isopropyl β-D-1-thiogalactopyranoside at 37 °C for 5 h. Cells were collected and stored at –80 °C for subsequent protein purification and refolding. […] All protein concentrations were determined by A280.
Experiments were performed on a MicroCal Auto-iTC200 titration calorimeter (Malvern Panalytical), with a cell volume of 200 μl and a 40-μl microsyringe. […] The microsyringe was loaded with a solution of the respective compounds, with the concentration measured by quantitative nuclear magnetic resonance, and was inserted into the calorimetric cell prefilled with the respective recombinant proteins of known concentration in ITC buffer. […]

Test [2] has as its target T2, Lp(a) assembly (recombinant human 16K apo(a) and apoB) (Homo sapiens, UniProt P08519).
T2 construct: containing one KIV type 1, six KIV type 2 repeats, one each of KIV types 3–10 and one KV; expressed in transfected cells; host or cells: Conditioned medium of HEK293 (CRL-1573) stably expressing 16K apo(a), combined with conditioned medium of wild-type HepG2 (HB-8065) for endogenous apoB
Kind of test: In vitro Lp(a) assembly assay. It is filed as biochemical.
Experimental: HepG2 cells (HB-8065, ATCC) were cultured in Dulbecco’s modified Eagle’s medium, supplemented with 10% fetal bovine serum, 20 mM 4-(2-hydroxyethyl)-1-piperazineethanesulfonic acid (HEPES) and 100 U ml^−1 penicillin–streptomycin. apoB-conditioned media were collected after 24 h of culture at 37 °C and 5% CO2 from confluent wild-type HepG2 cells that endogenously express and secrete apoB. Apo(a)-conditioned media were collected after 24 h of culture at 37 °C and 5% CO2 from HEK293 cells (CRL-1573, ATCC) that stably express and secrete recombinant human 16K apo(a) protein containing one KIV type 1, six KIV type 2 repeats, one each of KIV types 3–10 and one KV.
The assembly assay was conducted in 96-well polypropylene plates by combining HepG2 and apo(a)-HEK293-conditioned media in the presence of a range of compound concentrations. After a two-hour incubation period at 37 °C, the reaction was stopped by the addition of 6-aminocaproic acid. Lp(a) was detected using a sandwich enzyme-linked immunosorbent assay (ELISA), with a polyclonal goat anti-apo(a) capture antibody (Abcam ab31675) and a biotin-conjugated, polyclonal goat anti-apoB detection antibody (Abcam ab20898). In brief, ELISA plates were coated with 100 μl of the capture antibody at a 1:12,500 dilution (around 4 μg ml^−1) into HEPES-buffered saline (HBS), incubated overnight at 4 °C, washed and blocked by the addition of 200 μl of 1% casein. After removal of the blocking buffer, 20 μl of each of the assembly reactions or of a dilution series of purified human Lp(a) (Athens Research, 12-16-121601), diluted 1:5 into HBS supplemented with 0.5% casein, were added to the ELISA plate. […] Absorbance at 450 nm was measured on an Envision plate reader.
The concentration of Lp(a) formed in each test condition was determined on the basis of the standard curve constructed from the purified human Lp(a) used as a reference standard, and was normalized to high (buffer) and low (no apoB) controls. […] Data were analysed in GraphPad Prism v.9.5.1.

Test [3] deals with T1, apo(a) KIV5–8. As to the kind of experiment: Radioligand binding to apo(a) KIV5–8. The note with it: Experiment 1, read-out: Kd (nM) KIV5–8 Exp 1. Here is the method: as §1, with “h.” for “h. Cells were collected and stored at –80 °C for subsequent protein purification and refolding.”, “A280. […]” for “A280.”
(§2) Saturation binding studies of ^3H-LSN3441732 or ^3H-LSN3374443 were conducted by adding to each well of a white-wall, clear-bottom 96-well plate, 50 µl each of (1) dimethyl sulfoxide (DMSO) or a saturating concentration (40 μM) of an unlabelled ligand; (2) protein diluted into assay buffer; (3) resuspended wheat germ agglutinin polyvinyltoluene scintillation proximity assay beads (2 mg ml^−1); and (4) a dilution series of radioligand. Plates were incubated for one to two hours at room temperature and counted on a Wallac Trilux 1450 liquid scintillation counter. […]

The target of another test is T3, apo(a) KIV8 (Homo sapiens, UniProt P08519).
T3 construct: made in house
T3 sequence (P08519 1387-1465 limits assumed): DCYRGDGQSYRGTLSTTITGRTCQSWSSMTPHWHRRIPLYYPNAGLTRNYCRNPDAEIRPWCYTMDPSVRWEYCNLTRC
As to the kind of experiment: Radioligand binding to apo(a) KIV8. Here is the method: as §1, with “h.” for “h. Cells were collected and stored at –80 °C for subsequent protein purification and refolding.”, “A280. […]” for “A280.”
as §2

The target in the next test is T4, apo(a) KIV7–8 (Homo sapiens, UniProt P08519).
T4 construct: purified recombinant apo(a) KIV7–8 protein; made in house
T4 sequence (P08519 1263-1470 limits assumed): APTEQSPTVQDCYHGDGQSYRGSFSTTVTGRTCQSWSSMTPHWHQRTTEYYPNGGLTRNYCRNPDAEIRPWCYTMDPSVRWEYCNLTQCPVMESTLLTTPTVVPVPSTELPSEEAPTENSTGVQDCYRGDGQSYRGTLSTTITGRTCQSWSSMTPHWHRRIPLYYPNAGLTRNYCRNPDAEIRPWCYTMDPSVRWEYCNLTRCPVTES
As to the kind of experiment: Radioligand binding to apo(a) KIV7–8. Here is the method:
(§3) The nucleotide sequence encoding the human LPA gene (NP_005568.2) was inserted into a mammalian expression vector containing a cytomegalovirus promoter. Protein expression was performed by transient transfection of human embryonic kidney 293 (HEK293) cells cultured in serum-free medium. The culture medium was collected five days after transfection and human apo(a) protein was purified using L-lysine affinity chromatography. Nucleotide sequences encoding various KIV domains of human apo(a) and human and rat plasminogen were inserted into a pET21a Escherichia coli expression vector. Bacterial BL21(DE3) was used as the expression host, and the induction of protein expression was performed in 2× TY medium with 1 mM isopropyl β-D-1-thiogalactopyranoside at 37 °C for 5 h. Cells were collected and stored at –80 °C for subsequent protein purification and refolding. The frozen cell pellets were lysed and inclusion bodies were purified. The protein refolding was performed using the rapid-dilution method, and the refolded proteins were further purified by size-exclusion chromatography. All protein concentrations were determined by A280.
(§4) Full-length apo(a) and various shorter constructs were prepared as described. Human and rat plasminogen, purified from plasma by affinity chromatography, were obtained from Innovative Research (IHGPG and IRPLG, respectively).
(§5) All reagents used in the binding assays were prepared in assay buffer containing 50 mM Tris-HCl, pH 7.4, and 0.1% bovine serum albumin. […]
as §2

Test [4] addresses T5, full-length recombinant 16K apo(a) (Homo sapiens, UniProt P08519).
T5 construct: Full-length apo(a) and various shorter constructs were prepared as described; made in house
Kind of test: Radioligand binding to full-length recombinant 16K apo(a). How it is done: as §3, §4
(§6) All reagents used in the binding assays were prepared in assay buffer containing 50 mM Tris-HCl, pH 7.4, and 0.1% bovine serum albumin. All apo(a) proteins were diluted to a final concentration of 200 pM. Human and rat plasminogen were diluted into assay buffer, and 250 ng was added to each well.
Saturation binding studies of ^3H-LSN3441732 or ^3H-LSN3374443 were conducted by adding to each well of a white-wall, clear-bottom 96-well plate, 50 µl each of (1) dimethyl sulfoxide (DMSO) or a saturating concentration (40 μM) of an unlabelled ligand; (2) protein diluted into assay buffer; (3) resuspended wheat germ agglutinin polyvinyltoluene scintillation proximity assay beads (2 mg ml^−1); and (4) a dilution series of radioligand. Plates were incubated for one to two hours at room temperature and counted on a Wallac Trilux 1450 liquid scintillation counter. Non-specific binding, defined as binding in the presence of the unlabelled ligand, was subtracted to determine specific binding. Specific binding was plotted as a function of ligand concentration, and a single-site binding equation of the form y = Bmax × x/(Kd + x) was fitted to the data, where Bmax is the maximum saturable binding and Kd is the equilibrium dissociation constant.

Another test relates to rat plasminogen. Kind of test: Saturation radioligand binding to rat plasminogen. How it is done: as §4, §6
as §2, with “counter. Non-specific binding, defined as binding in the presence of the unlabelled ligand, was subtracted to determine specific binding.” for “counter.”

Test [5] concerns the target T6, apo(a) KIV7 (Homo sapiens, UniProt P08519).
T6 construct: made in house
As to the kind of experiment: Radioligand binding to apo(a) KIV7. Here is the method: as §3, §4, §5, §2

The next test deals with Lp(a) assembly. Also on record: method as in PMID 11802713. Particulars: cited from earlier work.
A further test relates to Lp(a). The note with it: humans; cited from earlier work.
The target in test [6] is apo(a) KIV7. Also on record: method as in PMID 11802713. The note with it: binding to lysine-binding domain of apo(a) KIV7; cited from earlier work.

Each structure is given as a SMILES string. Like-named read-outs stand apart in the source and are kept apart here.

T5 sequence (P08519 20-2040): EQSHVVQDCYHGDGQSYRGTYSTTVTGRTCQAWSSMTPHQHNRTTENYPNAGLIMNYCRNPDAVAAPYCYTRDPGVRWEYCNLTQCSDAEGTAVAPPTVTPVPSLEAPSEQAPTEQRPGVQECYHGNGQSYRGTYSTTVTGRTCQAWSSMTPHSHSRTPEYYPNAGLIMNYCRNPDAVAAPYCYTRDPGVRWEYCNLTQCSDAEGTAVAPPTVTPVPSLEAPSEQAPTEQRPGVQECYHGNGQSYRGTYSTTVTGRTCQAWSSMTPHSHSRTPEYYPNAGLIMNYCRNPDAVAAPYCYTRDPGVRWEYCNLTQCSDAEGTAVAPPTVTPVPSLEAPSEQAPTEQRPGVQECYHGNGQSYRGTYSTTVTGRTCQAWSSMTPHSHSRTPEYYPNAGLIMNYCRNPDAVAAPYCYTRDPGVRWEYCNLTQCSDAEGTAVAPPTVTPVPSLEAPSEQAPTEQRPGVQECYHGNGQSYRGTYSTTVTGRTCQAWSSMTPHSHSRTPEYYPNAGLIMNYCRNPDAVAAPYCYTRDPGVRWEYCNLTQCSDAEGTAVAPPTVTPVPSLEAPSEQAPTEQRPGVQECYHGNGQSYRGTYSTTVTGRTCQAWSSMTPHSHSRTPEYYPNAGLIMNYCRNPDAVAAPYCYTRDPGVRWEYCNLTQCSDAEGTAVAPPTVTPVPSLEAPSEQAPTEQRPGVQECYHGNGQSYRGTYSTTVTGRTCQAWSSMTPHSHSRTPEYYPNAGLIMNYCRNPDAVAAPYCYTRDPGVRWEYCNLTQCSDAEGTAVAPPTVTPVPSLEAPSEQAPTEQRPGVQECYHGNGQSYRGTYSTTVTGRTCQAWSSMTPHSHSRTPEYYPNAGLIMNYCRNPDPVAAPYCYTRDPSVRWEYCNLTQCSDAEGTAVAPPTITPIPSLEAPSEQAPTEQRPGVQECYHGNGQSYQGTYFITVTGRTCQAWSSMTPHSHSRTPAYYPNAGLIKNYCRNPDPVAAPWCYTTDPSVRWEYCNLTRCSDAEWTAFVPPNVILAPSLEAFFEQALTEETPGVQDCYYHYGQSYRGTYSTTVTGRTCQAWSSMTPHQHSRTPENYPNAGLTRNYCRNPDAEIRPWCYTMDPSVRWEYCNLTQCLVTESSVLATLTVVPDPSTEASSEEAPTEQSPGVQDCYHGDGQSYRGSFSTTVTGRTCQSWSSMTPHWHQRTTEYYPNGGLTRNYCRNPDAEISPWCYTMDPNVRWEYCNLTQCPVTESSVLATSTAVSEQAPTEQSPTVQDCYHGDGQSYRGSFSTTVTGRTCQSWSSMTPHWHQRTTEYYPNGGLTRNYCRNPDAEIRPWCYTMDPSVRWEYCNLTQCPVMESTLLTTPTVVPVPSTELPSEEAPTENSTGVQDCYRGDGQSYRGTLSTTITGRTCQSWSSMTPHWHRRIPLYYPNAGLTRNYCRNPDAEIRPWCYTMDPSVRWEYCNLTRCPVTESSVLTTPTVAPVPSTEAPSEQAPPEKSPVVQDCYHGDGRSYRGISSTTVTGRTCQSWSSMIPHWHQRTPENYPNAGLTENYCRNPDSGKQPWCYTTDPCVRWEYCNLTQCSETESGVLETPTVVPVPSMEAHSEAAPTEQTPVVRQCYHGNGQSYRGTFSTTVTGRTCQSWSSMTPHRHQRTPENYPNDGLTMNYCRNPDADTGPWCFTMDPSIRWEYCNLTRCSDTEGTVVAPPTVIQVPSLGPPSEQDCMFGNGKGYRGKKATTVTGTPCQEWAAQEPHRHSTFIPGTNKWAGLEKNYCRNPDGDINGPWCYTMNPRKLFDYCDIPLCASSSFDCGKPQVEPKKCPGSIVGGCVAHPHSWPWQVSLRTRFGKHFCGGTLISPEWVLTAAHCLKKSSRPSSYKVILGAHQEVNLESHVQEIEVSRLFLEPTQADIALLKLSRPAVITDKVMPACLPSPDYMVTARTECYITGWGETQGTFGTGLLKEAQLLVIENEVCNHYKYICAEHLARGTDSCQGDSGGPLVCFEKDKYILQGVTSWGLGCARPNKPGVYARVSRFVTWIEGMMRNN
T2 sequence (P08519 20-2040): as above

For orientation: Kd means the equilibrium constant for the complex coming apart. For orientation: IC50 means the point on the concentration scale where inhibition reaches its midpoint. Turning to `COc1cccc(N2CCN(c3cccc(C[C@H](C(=O)O)[C@H]4CCNC4)c3)C2=O)c1` [LSN3374443], the equilibrium dissociation constant (Kd) at apo(a) KIV5–8 [1] was less than 15 nM. Further, in [2], the concentration for half-maximal inhibition (IC50) is 36 nM.

As to `O=C(Nc1cccc(C[C@H](C(=O)O)[C@H]2CCNC2)c1)Nc1cccc(C[C@H](C(=O)O)[C@H]2CCNC2)c1` [^3H-LSN3441732], the Kd on apo(a) KIV5–8 [3] turned out to be 0.33 nM; on apo(a) KIV8 (direct radioligand binding, read-out: Kd, single KIV8), 2 nM; on apo(a) KIV8 (radioligand binding, Experiment 1, read-out: Kd (nM) KIV8 Exp 1), 3 nM; at apo(a) KIV7–8 (direct radioligand binding, read-out: Kd, KIV7–8), 0.21 nM; at apo(a) KIV7–8 (radioligand binding, Experiment 1, read-out: Kd (nM) KIV7–8 Exp 1) it was 0.32 nM; at apo(a) KIV7–8 (radioligand binding, Experiment 2, read-out: Kd (nM) KIV7–8 Exp 2) it was 0.1 nM. The Kd was found to be 0.05 nM in test [4] (direct radioligand binding, mean); 2.8 nM on apo(a) KIV7 [5] (direct radioligand binding, read-out: Kd, single KIV7); 3 nM at apo(a) KIV7 [5] (radioligand binding, Experiment 1, read-out: Kd (nM) KIV7 Exp 1); 2.7 nM on apo(a) KIV7 [5] (radioligand binding, Experiment 2, read-out: Kd (nM) KIV7 Exp 2). For the same compound, the “Bmax, full-length apo(a)” value in test [4] (direct radioligand binding) is reported as 4.9 fmol ng^−1 apo(a). In test [4] (from Bmax), the “ligands per molecule of apo(a)” value is on record as “one”. For the same compound, in [4] (full-length apo(a)), the “fold affinity increase versus ^3H-LSN3374443” value was 50 fold. Further, in the test on rat plasminogen, the “fold higher affinity for rat plasminogen than for human plasminogen” value is 50 fold.

Take `NC[C@H]1CC[C@H](C(=O)O)CC1` [tranexamic acid]: the “in vitro assembly of Lp(a)” value in the test with Lp(a) assembly is “inhibited”. The “levels of Lp(a) in a small clinical study” value with Lp(a) is reported as “reduce the levels of Lp(a)”. In addition, the Kd at apo(a) KIV7 [6] is 63000 nM.

Turning to `NCCCCCC(=O)O` [ε-aminocaproic acid], the “in vitro assembly of Lp(a)” value in the test on Lp(a) assembly is recorded as “inhibited”. The dissociation constant Kd at apo(a) KIV7 [6] was 230000 nM.
